Like-named read-outs stand apart in the source and are kept apart here.
How the values were obtained:
Mouse = experiment: General compatibility, mouse LD50; assay type: in vivo; settings: for Mouse LD50: General compatibility
Source text: (§1) In Table I, the following compounds are compared with respect to neural and general compatibility: […]

Rat [1] = experiment: Neural compatibility, rat, intracisternal ED50; assay type: in vivo
Source text: as §1

[2] = clinical experience; cited from earlier work
Rat [3] = experiment: Neural compatibility, rat, pericerebral ED50; assay type: in vivo
Source text: as §1

[4] = Viscosity at 37° C., 300 mg I/ml; assay type: physicochemical
[5] = Number of hydroxy groups per molecule; assay type: physicochemical
Iodine content = assay type: physicochemical
Rat [6] = experiment: Neural compatibility, comparison in words; assay type: in vivo; settings: data of Table I
Source text: as §1

Solubility in water = assay type: physicochemical; settings: in 100 ml of water; read-out: Solubility (100 ml of water dissolves)

| SMILES | Mouse LD50 (Mouse) | Rat, intracisternal ED50 (Rat [1]) | side effects (in words) [2] | Rat, pericerebral ED50 (Rat [3]) | Viscosity [4] | Number of hydroxy groups/molecule [5] | Iodine content (Iodine content) | solubility (Solubility in water) | also measured |
| --- | --- | --- | --- | --- | --- | --- | --- | --- | --- |
| CC(=O)Nc1c(I)c(C(=O)N[C@H]2C(O)O[C@H](CO)[C@@H](O)[C@@H]2O)c(I)c(N(C)C(C)=O)c1I (some centres unmarked) [B, Metrizamide] | 14 g I/kg | 48 mg I/kg | still are not devoid of side effects | 62 mg I/kg | 6.2 mPa · s | 4 | 48% |  |  |
| C[C@H](O)C(=O)Nc1c(I)c(C(=O)NC(CO)CO)c(I)c(C(=O)NC(CO)CO)c1I [C, Iopamidol] | 15 g I/kg | 116 mg I/kg | still are not devoid of side effects | 154 mg I/kg | 4.5 mPa · s | 5 | 49% |  |  |
| CC(=O)N(CC(O)CO)c1c(I)c(C(=O)NCC(O)CO)c(I)c(C(=O)NCC(O)CO)c1I (centres unmarked) [D, Iohexol] | 15 g I/kg | 67 mg I/kg | still are not devoid of side effects | 83 mg I/kg | 5.5 mPa · s | 6 | 46% |  |  |
| CC(=O)N(CCO)c1c(I)c(C(=O)NC(CO)C(O)CO)c(I)c(C(=O)NC(CO)C(O)CO)c1I (stereo not drawn) [Example 1, 5-[N-(2-Hydroxyethyl)acetylamino]-2,4,6-triiodoisophthalic acid bis(threo-1,3,4-trihydroxybut-2-yl)diamide] |  | 130 mg I/kg |  |  |  | 7 | 45% |  | Mouse LD50 (Mouse; listed as A1): 17 g I/kg; general compatibility (in words) (Mouse; data of Table I): superior to the comparison compounds; neural compatibility (in words) (Rat [6]): superior to the comparison compounds; Rat, pericerebral ED50 (Rat [3]; listed as A1): 171 mg I/kg; Viscosity ([4]; listed as A1): 5.8 mPa · s |
| CC(=O)N(CCO)c1c(I)c(C(=O)NC(CO)C(O)CO)c(I)c(C(=O)NC(CO)C(O)CO)c1I (stereo not drawn) [Example 2, 5-[N-(2-Hydroxyethyl)acetylamino]-2,4,6-triiodoisophthalic acid bis(erythro-1,3,4-trihydroxybut-2-yl)diamide] |  |  |  |  |  |  |  | > 700 mg/mL | Mouse LD50 (Mouse; listed as A2): 22 g I/kg; Rat, pericerebral ED50 (Rat [3]; listed as A2): 188 mg I/kg; Viscosity ([4]; listed as A2): 6.2 mPa · s |
| CC(=O)N(CCO)c1c(I)c(C(=O)NC(CO)(CO)CO)c(I)c(C(=O)NC(CO)(CO)CO)c1I [Example 3, 5-[N-(2-Hydroxyethyl)acetylamino]-2,4,6-triiodo-isophthalic Acid Bis(1,1,1-trishydroxymethylmethyl)diamide] |  |  |  |  |  |  |  | > 700 mg/mL |  |
| CC(=O)N(CCO)c1c(I)c(C(=O)NCC(O)C(O)CO)c(I)c(C(=O)NCC(O)C(O)CO)c1I (centres unmarked) [Example 4, 5-[N-(2-Hydroxyethyl)acetylamino]-2,4,6-triiodo-isophthalic Acid Bis(2,3,4-trihydroxybut-1-yl)-diamide] |  |  |  |  |  |  |  | > 700 mg/mL |  |

From US4547357A, “N-Hydroxyethylated 2,4,6-triiodoaminoisophthalic acid bistrihydroxybutylamides, their preparation and x-ray contrast media containing them” (priority 1981, dated 1985)
